From patent US11667661B2, “Benzimidazole derivatives, preparation method thereof and use thereof as anti-cancer agent comprising the same” (BIOMETRIX TECHNOLOGY INC, priority 2020, dated 2023)
Entries after “also recorded” stand apart in the source; their conditions may differ.

Tests used:
[1] = system: human lung cancer cell line A549, cervical cancer cell line Hela, colorectal cancer cell line HT-29; experiment: Cancer cell line growth inhibition test (WST-8 cell viability, 72 h); type: cell-based; conditions: for Cancer Cell line growth inhibition test: relative evaluation compared to doxorubicin
Experimental: A human lung cancer cell line A549, a cervical cancer cell line Hela, and a colorectal cancer cell line HT-29 were adopted from the Korea Cell Line Bank (KCLB, Seoul, Korea) and cultured in a culture medium.
In a humidified cell culture incubator containing 5% CO2; at 37° C. using a DMEM and a 10% culture flask, fetal bovine serum (FBS), 0.1 mM MEM non-essential amino acid (NEAA), 2 mM L-glutamine, and 1% penicillin-streptomycin were trypsinized every 2 to 3 days according to the instructions provided by the KCLB to subculture the cells. The culture was cultured until reached 80% to 90% of confluence, and the cells were successively transferred to a culture flask for a cancer cell line growth inhibition test.
A cancer cell line, a human lung cancer cell line A549, a cervical cancer cell line Hela, and a colorectal cancer cell line HT-29 to be tested were seeded in a 96-well plate at about 10,000 cells per well.
After incubation, the medium was removed and the cell viability in each well was measured using a WST-8 cell viability assay kit (Quanti-Max™, BIOMAX) and according to a procedure instructed by a manufacturer.
The analysis used a principle that dehydrogenase of living cells decomposed tetrazolium salt to generate formazan, and through this, the living cells were quantitatively evaluated.
Reduced formazan salt was soluble in a cell culture medium and an amount of formazan was directly proportional to the number of living cells (Slater, T. et al. (1963) Biochem. Biophys. Acta 77:383. van de Loosdrecht, A. A., et al. J. Immunol. Methods 174: 311-320, 1994. Alley, M. C., et al. Cancer Res. 48: 589-601, 1988.).

[2] = system: normal lung cell line MRC-5 and normal colon CCD-18Co cell line; experiment: Toxicity test in normal cell line (WST-8 cell viability, 72 h); type: cell-based; conditions: for Normal cell line toxicity test: relative evaluation compared to doxorubicin

Row | Substance | cancer cell line growth inhibition efficiency ([1]; FIG. 1, A549, Hela, HT-29, 0-100 μM, 72 hours, versus albendazole, fenbendazole, doxorubicin) | Cancer Cell line growth inhibition test [1] | toxicity to the normal cell lines ([2]; FIG. 2, MRC-5, CCD-18Co, 0-100 μM, 72 hours, compared to albendazole, fenbendazole, and doxorubicin) | Normal cell line toxicity test [2]
1 | albendazole-1,2,3,4-Tetra-β-D-glucose [AL-1] | most excellent; also recorded: very excellent | AA (AA represents equal (1 to 2 times)) | very weak | AA (AA represents little toxicity ( 1/10 times))
2 | albendazole-1,2,3,4-Tetra-β-D-fructose [AL-2] |  | AA (AA represents equal (1 to 2 times)) |  | AA (AA represents little toxicity ( 1/10 times))
3 | Fenbendazole-1,2,3,4-Tetra-β-D-glucose [FB-1] |  | AA (AA represents equal (1 to 2 times)) |  | 
4 | Fenbendazole-1,2,3,4-Tetra-β-D-fructose [FB-2] |  | AA (AA represents equal (1 to 2 times)) |  | 
